Assay results as given in patent publication US20120316169A1, “2-ARYL-PROPIONAMIDE DERIVATIVES USEFUL AS BRADYKININ RECEPTOR ANTAGONISTS AND PHARMACEUTICAL COMPOSITIONS CONTAINING THEM” (DOMPÉ S.P.A., priority 2009, published 2012).

molecular target: T1, BKB1 receptors (Homo sapiens, UniProt P46663); test: Calcium mobilization assay (FLIPR), B1 receptors in IMR-90 cells; format: cell-based; conditions: Human IMR-90 lung fibroblast cells, up-regulated BKB1 receptors, agonist desArg10-kallidin (DAKD) 2 to 8 nM, calcium-dependent fluorescence
T1 construct: Human (IMR-90) lung fibroblast cells expressing native B1 receptors; endogenous in cells; host or cells: IMR-90 human lung fibroblasts, interleukin-treated to up-regulate BKB1 receptors
T1 sequence (P46663 1-353): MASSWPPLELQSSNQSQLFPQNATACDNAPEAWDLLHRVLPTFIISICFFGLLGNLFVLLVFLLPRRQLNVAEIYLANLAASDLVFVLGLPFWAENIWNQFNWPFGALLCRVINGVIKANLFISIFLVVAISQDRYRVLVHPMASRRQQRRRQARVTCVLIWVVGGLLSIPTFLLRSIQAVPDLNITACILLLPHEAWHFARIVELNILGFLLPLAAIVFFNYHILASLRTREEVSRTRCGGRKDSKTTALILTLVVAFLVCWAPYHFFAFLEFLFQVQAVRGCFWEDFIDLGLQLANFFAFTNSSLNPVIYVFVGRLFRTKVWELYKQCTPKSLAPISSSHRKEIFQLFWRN
Protocol: Calcium mobilization assay (FLIPR)—Human (IMR-90) lung fibroblast cells expressing native B1 receptors were harvested by trypsinization and seeded into black wall/clear bottom 96-well plates (Costar 3904; Corning Life Sciences, Acton, Mass.) at approximately 13,000 cells/well. After 1 day incubation, cells were treated with […] (0.35 ng/ml) in 10% FBS/MEM for 2 h to up-regulate BKB1 receptors. Induced cells were loaded with fluorescent calcium indicator by incubation with 2.3 μM Fluo-4/acetoxymethyl ester (Invitrogen) at 37° C. for 1.5 h in the presence of an anion transport inhibitor (2.5 mM probenecid in 1% FBS/MEM). Extracellular dye was removed by washing with assay buffer (2.5 mM probenecid, 0.1% BSA in 20 mM HEPES/HBSS without bicarbonate or phenol red, pH 7.5) and cell plates were kept in the dark until used. Test compounds were assayed at eight concentrations in triplicate. Addition of test compounds to the cell plate and incubation for 5 min at 35° C., followed by the addition of 2 to 8 nM final BK1 agonist desArg^10-kallidin (DAKD, 3×EC50) was carried out in the fluorimetric imaging plate reader (FLIPR; Molecular Devices) while continuously monitoring calcium-dependent fluorescence.

IC50	Compound
2.82 µM	CC(C(=O)Nc1ccncc1)c1cccc(Oc2ccc3ccccc3c2)c1 (stereo not drawn) [Compound 73, 2-[3-(naphthalen-2-yloxy)phenyl]-N-(pyridin-4-yl)propanamide]
3.63 µM	COc1cccc(CN(C)CCCNC(=O)C(C)c2ccc(OS(=O)(=O)C(F)(F)F)cc2)c1 (stereo not drawn) [Compound 50, 4-(1-{[3-[3-methoxybenzyl(methyl)amino]propyl}amino-1-oxopropan-2-yl)phenyl trifluoromethanesulfonate]
0.708 µM	CC(C(=O)NCCC1CCN(c2ccncc2)CC1)c1ccc(Nc2ccccc2-n2cccc2)cc1 (stereo not drawn) [Compound 70, N-{2-[1-(pyridin-4-yl)piperidin-4-yl]ethyl}-2-(4-{[2-(1H-pyrrol-1-yl)phenyl]amino}phenyl)propanamide]
12.6 µM	CC(C)Cc1ccc(C(C)C(=O)Nc2cc[n+](C)cn2)cc1 (stereo not drawn) [Compound 39, 1-methyl-4-({2-[4-(2-methylpropyl)phenyl]propanoyl}amino)pyrimidin-1-ium iodide]
11.5 µM	CC(C(=O)Nc1ccc(Cc2ccncc2)cc1)c1ccc(Nc2nc(C(F)(F)F)cs2)cc1 (stereo not drawn) [Compound 44, N-[4-(pyridin-4-ylmethyl)phenyl]-2-(4-{[4-(trifluoromethyl)-1,3-thiazol-2-yl]amino}phenyl)propanamide]
8.13 µM	COc1cccc(CN(C)CCNC(=O)C(C)c2ccc(NS(=O)(=O)C(C)C)cc2)c1 (stereo not drawn) [Compound 22]
6.92 µM	COc1cc(Nc2cccc(C(C)C(=O)NC3CCCCC3N)c2)cc(C(F)(F)F)c1 (stereo not drawn) [Compound 59, N-(2-aminocyclohexyl)-2-[3-{[3-methoxy-5-(trifluoromethyl)phenyl]amino}phenyl]propanamide]
1.38 µM	CC(C)Cc1ccc(C(C)C(=O)Nc2ccncc2)cc1 (stereo not drawn) [Compound 37, 2-[4-(2-methylpropyl)phenyl]-N-(pyridin-4-yl)propanamide]
6.17 µM	Cc1ccnn1CCNC(=O)C(C)(F)c1ccc(OS(=O)(=O)C(F)(F)F)cc1 (stereo not drawn) [Compound 2, 4-(2-fluoro-1-{[2-(5-methyl-1H-pyrazol-1-yl)ethyl]amino}-1-oxopropan-2-yl)phenyl trifluoromethanesulfonate]
7.24 µM	CC(C(=O)NCCNc1ccccc1)c1cccc(Oc2cccc(F)c2)c1 (stereo not drawn) [Compound 12, 2-[3-(3-fluorophenoxy)phenyl]-N-[2-(phenylamino)ethyl]propanamide]
1 µM	CC(C(=O)Nc1ccncc1)c1cccc(Nc2ccc(F)cc2)c1 (stereo not drawn) [Compound 74, 2-{3-[(4-fluorophenyl)amino]phenyl}-N-(pyridin-4-yl)propanamide]
8.51 µM	COc1cc(Nc2cccc(C(C)C(=O)NNC(=O)c3ccco3)c2)cc(C(F)(F)F)c1 (stereo not drawn) [Compound 54, N′-{2-[3-(3-methoxy-5-(trifluoromethyl)phenylamino)phenyl]propanoyl}furan-2-carbohydrazide]
6.31 µM	CC(C(=O)Nc1ccncn1)c1cccc(NC2CC2)c1 (stereo not drawn) [Compound 14, 2-[3-(cyclopropylamino)phenyl]-N-(pyrimidin-4-yl)propanamide]
8.51 µM	CCCC/C=C/c1cccc(C(C)C(=O)Nc2ccncn2)c1 (stereo not drawn) [Compound 28, 2-{3-[hex-1-en-1-yl]phenyl}-N-(pyrimidin-4-yl)propanamide]
9.77 µM	Cc1cc(NC(=O)C(C)c2cccc(C(=O)c3ccccc3)c2)n(C)n1 (stereo not drawn) [Compound 36, N-(1,3-dimethyl-1H-pyrazol-5-yl)-2-[3-(phenylcarbonyl)phenyl]propanamide]
4.27 µM	CC(F)(C(=O)Nc1ccsc1S(N)(=O)=O)c1cccc(Nc2nc(C(F)(F)F)cs2)c1 (stereo not drawn) [Compound 4, 2-fluoro-N-(2-sulfamoylthiophen-3-yl)-2-(3-{[4-(trifluoromethyl)-1,3-thiazol-2-yl]amino}phenyl)propanamide]
3.47 µM	COc1cc(Nc2cccc(C(C)C(=O)NCCNCc3ccccc3)c2)cc(C(F)(F)F)c1 (stereo not drawn) [Compound 57, 2-{3-[(3-methoxy-5-(trifluoromethyl)phenyl)amino]phenyl}-N-[2-(benzylamino)ethyl]propanamide]
12 µM	Cc1ccc(Cl)c(Nc2ccc(C(C)C(=O)NCCN3CCOCC3)cc2)c1Cl (stereo not drawn) [Compound 16, 2-{4-[(2,6-dichloro-3-methylphenyl)amino]phenyl}-N-[2-(morpholin-4-yl)ethyl]propanamide]

IC50	Compound
4.47 µM	CC(C(=O)Nc1ccncc1)c1ccc(Nc2ccc(F)cc2)cc1 (stereo not drawn) [Compound 71, 2-{4-[(4-fluorophenyl)amino]phenyl}-N-(pyridin-4-yl)propanamide]
3.89 µM	CC(C(=O)NCCCNC1CCCCC1)c1ccc(Oc2cccc3ccccc23)cc1 (stereo not drawn) [Compound 63, N-[3-(cyclohexylamino)propyl]-2-[4-(naphthalen-1-yloxy)phenyl]propanamide]
8.71 µM	CC(C(=O)Nc1cc(Cl)cc(Cl)c1S(N)(=O)=O)c1ccc(OS(=O)(=O)c2ccccc2Cl)cc1 (stereo not drawn) [Compound 81, 4-{1-[(3,5-dichloro-2-sulfamoylphenyl)amino]-1-oxopropan-2-yl}phenyl 2-chlorobenzenesulfonate]
8.91 µM	CC(C(=O)Nn1cnnc1)c1ccc(Oc2cccc3ccccc23)cc1 (stereo not drawn) [Compound 64, 2-[4-(naphthalen-1-yloxy)phenyl]-N-(4H-1,2,4-triazol-4-yl)propanamide]
8.71 µM	CC(F)(C(=O)Nc1ccccc1S(N)(=O)=O)c1cccc(Nc2nc(C(F)(F)F)cs2)c1 (stereo not drawn) [Compound 5, 2-fluoro-N-(2-sulfamoylphenyl)-2-(3-{[4-(trifluoromethyl)-1,3-thiazol-2-yl]amino}phenyl)propanamide]
10.2 µM	CC(C(=O)Nc1nccs1)c1cccc(C(=O)c2ccccc2)c1 (stereo not drawn) [Compound 33, 2-[3-(phenylcarbonyl)phenyl]-N-(1,3-thiazol-2-yl)propanamide]
14.5 µM	COc1cc(Nc2cccc(C(C)C(=O)Nn3cccc3)c2)cc(C(F)(F)F)c1 (stereo not drawn) [Compound 53, 2-(3-{[3-methoxy-5-(trifluoromethyl)phenyl]amino}phenyl)-N-(1H-pyrrol-1-yl)propanamide]
8.51 µM	CC(C(=O)NC1CCCCC1)c1cccc(C(=O)c2ccccc2)c1 (stereo not drawn) [Compound 34, N-cyclohexyl-2-[3-(phenylcarbonyl)phenyl]propanamide]
5.25 µM	CC(C(=O)Nc1ccncc1)c1ccc(Nc2cnc3ccccc3c2)cc1 (stereo not drawn) [Compound 80, N-(pyridin-4-yl)-2-[4-(quinolin-3-ylamino)phenyl]propanamide]
1.2 µM	CC(C(=O)Nc1cnccn1)c1ccc(Oc2ccc(F)cc2)cc1 (stereo not drawn) [Compound 75, 2-[4-(4-fluorophenoxy)phenyl]-N-(pyrazin-2-yl)propanamide]
7.08 µM	CCc1cc(NC(=O)C(C)c2ccc(Nc3nc(C(F)(F)F)co3)cc2)[nH]n1 (stereo not drawn) [Compound 29, N-(3-ethyl-1H-pyrazol-5-yl)-2-(4-{[4-(trifluoromethyl)-1,3-oxazol-2-yl]amino}phenyl)propanamide]
8.51 µM	CCCC/C=C/c1cccc(C(C)C(=O)NCCNC(C)C)c1 (stereo not drawn) [Compound 27, 2-{3-[hex-1-en-1-yl]phenyl}-N-[2-(propan-2-ylamino)ethyl]propanamide]
9.12 µM	CC(C(=O)Nc1nc(C(C)(C)C)cs1)c1ccc(NS(=O)(=O)C(C)C)cc1 (stereo not drawn) [Compound 21, 2-{4-[(propan-2-ylsulfonyl)amino]phenyl}-N-(4-tert-butyl-1,3-thiazol-2-yl)propanamide]
5.25 µM	COc1cc(Nc2cccc(C(C)C(=O)Nc3ccncn3)c2)cc(C(F)(F)F)c1 (stereo not drawn) [Compound 55, 2-(3-{[3-methoxy-5-(trifluoromethyl)phenyl]amino}phenyl)-N-(pyrimidin-4-yl)propanamide]
2.63 µM	CCn1cc(NC(=O)C(C)c2ccc(C(=O)c3ccccc3)s2)c(C)n1 (stereo not drawn) [Compound 8, N-(1-ethyl-3-methyl-1H-pyrazol-4-yl)-2-[5-(phenylcarbonyl)thiophen-2-yl]propanamide]
21.9 µM	C=C(C)CNC(=O)C(C)c1cccc(C(=O)c2cccs2)c1 (stereo not drawn) [Compound 23, N-(2-methylprop-2-en-1-yl)-2-[3-(thiophen-2-ylcarbonyl)phenyl]propanamide]
7.76 µM	COc1cccc(CN(C)CCNC(=O)C(C)c2ccc(Nc3nc(C(F)(F)F)co3)cc2)c1 (stereo not drawn) [Compound 31, N-{2-[(3-methoxybenzyl)(methyl)amino]ethyl}-2-(4-{[4-(trifluoromethyl)-1,3-oxazol-2-yl]amino}phenyl)propanamide]
7.76 µM	CC(C(=O)NCC(=O)NC(C)(C)C)c1ccc(Nc2nc(C(F)(F)F)co2)cc1 (stereo not drawn) [Compound 30, N-[2-(tert-butylamino)-2-oxoethyl]-2-(4-{[4-(trifluoromethyl)-1,3-oxazol-2-yl]amino}phenyl)propanamide]
